Our source for the MIC values is patent US9045466B2, “Amidine compound or salt thereof” (priority 2011, dated 2015).

Converted amounts (≈) assume the structure as drawn. Counter-ions that a name gives are not always drawn. Like-named read-outs stand apart in the source and are kept apart here.

The subject of this assay is Trichophyton rubrum NBRC 5467. The experiment in a line: Fungal susceptibility test, broth microdilution method (MIC). The format is cell-based. The settings on record: NBRC5467, 96 h. Here is the method: The fungal susceptibility tests on test substances were conducted by the broth microdilution method equivalent to Clinical and Laboratory Standards Institute method. The medium used in the susceptibility tests was RPMI1640 adjusted to pH 7.0 with 0.165 mol/L morpholinepropanesulfonic acid (MOPS) and 50% sodium hydroxide (RPMI/MOPS). Each test substance was dissolved in DMSO and serially diluted in 2-fold increments with DMSO on a 96-well microplate. Then, the dilutions were dispensed by 1 μL to a 96-well microplate. Candida albicans TIMM 1623 cultured overnight at 35° C. in Sabouraud's agar medium was suspended in sterile saline. The number of cells was counted under a biological microscope, and the fungal suspension was diluted with RPMI/MOPS to prepare the inoculum solution (approximately 1×10^3 cells/mL). Alternatively, Candida albicans TIMM 1623 stored at −80° C. was diluted with RPMI/MOPS to prepare the inoculum solution (approximately 1×10^3 CFU/mL). Aspergillus fumigatus TIMM 0063 stored at 5° C. was diluted with RPMI/MOPS to prepare the inoculum solution (approximately 1×10^4 CFU/mL). Trichophyton rubrum NBRC 5467 stored at 5° C. or −80° C. was diluted with RPMI/MOPS to prepare the inoculum solution (approximately 2×10^3 CFU/mL). The 199 μL of inoculum solution was dispensed to each well to prepare the microplate containing the designated concentrations of test substance, medium and fungal cells. Candida albicans and Aspergillus fumigatus were cultured at 35° C. for 2 days. Trichophyton rubrum was cultured at 35° C. for 4 days. After the completion of culture, MIC was determined by visual observation. The MICs of Candida albicans and Aspergillus fumigatus were set to the lowest concentration at which approximately 50% growth inhibition was seen, when compared with a growth control without the addition of the test substance. The MIC of Trichophyton rubrum was set to the lowest concentration at which approximately 80% growth inhibition was seen, when compared with a growth control without the addition of the test substance.
On the technique in general: Dilution methods test growth across graded concentrations, often in twofold steps.

[1] abbreviates: pH 7, read-out: MIC (μg/mL) T. rubrum NBRC5467.
The mark [2] stands for this setting: RPMI/MOPS pH 7.0, 35° C. for 4 days, visual, lowest concentration with approximately 80% growth inhibition, read-out: MIC (μg/mL) T. rubrum NBRC5467.

With `CCN(C)/C=N/c1cc(C)c(Cc2nc(-c3cnc(C)cn3)cs2)cc1C` [Example 37, N′-(2,5-Dimethyl-4-{[4-(5-methylpyrazin-2-yl)-1,3-thiazol-2-yl]methyl}phenyl)-N-ethyl-N-methylimidoformamide dihydrochloride], under setting [1], the MIC came out at 0.0039 µg/mL. The same measure, in the same setting: under `CCN(C)/C=N/c1cc(C)c(Cc2nc(C3CC3)cs2)cc1C` [Example 45, N′-{4-[(4-Cyclopropyl-1,3-thiazol-2-yl)methyl]-2,5-dimethylphenyl}-N-ethyl-N-methylimidoformamide dihydrochloride] stands 0.0313 µg/mL. As for `CCN(C)/C=N/c1cc(C)c(Cc2nc(C(=O)NC(C)(C)CC)cs2)cc1C` [Example 86, 2-[4-({(E)-[Ethyl(methyl)amino]methylidene}amino)-2,5-dimethylbenzyl]-N-(2-methylbutan-2-yl)-1,3-thiazole-4-carboxamide], the MIC under setting [2] was 0.0039 µg/mL (≈ 0.00974 µM).

For `CCN(C)/C=N/c1cc(C)c(Cc2nc(CS(=O)(=O)c3ccc(C)cc3)cs2)cc1C` [Example 30, N′-{2,5-Dimethyl-4-[(4-{[(4-methylphenyl)sulfonyl]methyl}-1,3-thiazol-2-yl)methyl]phenyl}-N-ethyl-N-methylimidoformamide dihydrochloride], the MIC under setting [1] is 0.0625 µg/mL. `CCN(C)/C=N/c1cc(C)c(Cc2nc(NC(=O)OC(C)C)cs2)cc1C` [Example 102, Propan-2-yl {2-[4-({(E)-[ethyl(methyl)amino]methylidene}amino)-2,5-dimethylbenzyl]-1,3-thiazol-4-yl}carbamate]: under setting [2], the MIC came out at 0.0078 µg/mL (≈ 0.0201 µM).

`CCN(C)/C=N/c1cc(C)c(Cc2nc(-c3ccc(C(=O)NC)cc3)cs2)cc1C` [Example 41, 4-{2-[4-({(E)-[Ethyl(methyl)amino]methylidene}amino)-2,5-dimethylbenzyl]-1,3-thiazol-4-yl}-N-methylbenzamide]: the MIC under setting [2] worked out at 0.0078 µg/mL (≈ 0.0185 µM). Take `CCN(C)/C=N/c1cc(C)c(Cc2nc(C(=O)NCc3ccccc3)cs2)cc1C` [Example 44, N-Benzyl-2-[4-({(E)-[ethyl(methyl)amino]methylidene}amino)-2,5-dimethylbenzyl]-1,3-thiazole-4-carboxamide dihydrochloride]: under setting [1], the MIC is 0.0625 µg/mL. Regarding `CCN(C)/C=N/c1cc(C)c(Cc2nc(-c3ccc(C(=O)NC(C)C)cc3)cs2)cc1C` [Example 98, 4-{2-[4-({(E)-[Ethyl(methyl)amino]methylidene}amino)-2,5-dimethylbenzyl]-1,3-thiazol-4-yl}-N-(propan-2-yl)benzamide], under setting [2], the MIC was determined as 0.0156 µg/mL (≈ 0.0348 µM). As for `CCN(C)/C=N/c1cc(C)c(Cc2nc(C(=O)NC(C)(C)C(F)(F)F)cs2)cc1C` [Example 109, 2-[4-({(E)-[Ethyl(methyl)amino]methylidene}amino)-2,5-dimethylbenzyl]-N-(1,1,1-trifluoro-2-methylpropan-2-yl)-1,3-thiazole-4-carboxamide hydrochloride], under setting [1], the MIC came to 0.0039 µg/mL. Still for that read-out and setting: under `CCN(C)/C=N/c1cc(C)c(Cc2nc(C(=O)NC3CCC(F)(F)CC3)cs2)cc1C` [Example 96, N-(4,4-Difluorocyclohexyl)-2-[4-({(E)-[ethyl(methyl)amino]methylidene}amino)-2,5-dimethylbenzyl]-1,3-thiazole-4-carboxamide hydrochloride] stands 0.0313 µg/mL. Still for that read-out and setting: under `CCN(C)/C=N/c1ccc(Cc2nc(-c3ccc(Cl)cc3)cs2)cc1` [Example 51, N′-(4-{[4-(4-Chlorophenyl)-1,3-thiazol-2-yl]methyl}phenyl)-N-ethyl-N-methylimidoformamide hydrochloride] stands 0.25 µg/mL.

For `CCN/C=N/c1cc(C)c(Cc2nc(-c3cnc(C)cn3)cs2)cc1C` [Example 105, N′-(2,5-Dimethyl-4-{[4-(5-methylpyrazin-2-yl)-1,3-thiazol-2-yl]methyl}phenyl)-N-ethylimidoformamide hydrochloride], the MIC under setting [1] amounted to 0.0313 µg/mL. Turning to `CCN(C)/C=N/c1cc(C)c(Cc2nc(-c3cncc(F)c3)cs2)cc1C` [Example 21, N-Ethyl-N′-(4-{[4-(5-fluoropyridin-3-yl)-1,3-thiazol-2-yl]methyl}-2,5-dimethylphenyl)-N-methylimidoformamide trihydrochloride], the MIC under setting [1] was 0.0156 µg/mL. As for `CCN(C)/C=N/c1cc(C)c(Cc2nc(C3CCC(C(=O)NC)CC3)cs2)cc1C` (stereo not drawn) [Example 87, 4-{2-[4-({(E)-[Ethyl(methyl)amino]methylidene}amino)-2,5-dimethylbenzyl]-1,3-thiazol-4-yl}-N-methylcyclohexanecarboxamide], the MIC under setting [2] is 0.0156 µg/mL (≈ 0.0366 µM). Regarding `CCOC(=O)c1csc(Cc2cc(C)c(/N=C/N(C)CC)cc2C)n1` [Example 35, Ethyl 2-[4-({(E)-[ethyl(methyl)amino]methylidene}amino)-2,5-dimethylbenzyl]-1,3-thiazole-4-carboxylate], the MIC under setting [1] was 0.0313 µg/mL (≈ 0.0871 µM). Turning to `CCN(C)/C=N/c1cc(C)c(Cc2nc(-c3ccc(C(=O)N4CCC4)cc3)cs2)cc1C` [Example 101, N′-[4-({4-[4-(Azetidin-1-ylcarbonyl)phenyl]-1,3-thiazol-2-yl}methyl)-2,5-dimethylphenyl]-N-ethyl-N-methylimidoformamide], the MIC under setting [2] amounted to 0.0625 µg/mL (≈ 0.14 µM). Still for that read-out and setting: the value for `CCN(C)/C=N/c1cc(C)c(Cc2nc(C(O)c3ccc(Cl)cc3)cs2)cc1C` (stereo not drawn) [Example 38, N′-[4-({4-[(4-Chlorophenyl)(hydroxy)methyl]-1,3-thiazol-2-yl}methyl)-2,5-dimethylphenyl]-N-ethyl-N-methylimidoformamide] was 0.0078 µg/mL (≈ 0.0182 µM). The same measure, in the same setting: the value for `CCN(C)/C=N/c1cc(C)c(Cc2nc(-c3ccc(S(C)(=O)=O)cc3)cs2)cc1C` [Example 23, N′-[2,5-Dimethyl-4-{4-[4-(methylsulfonyl)phenyl]-1,3-thiazol-2-yl}methyl)phenyl]-N-ethyl-N-methylimidoformamide dihydrochloride] was 0.0039 µg/mL.

For the compound `CCN(C)/C=N/c1cc(C)c(Cc2nc(COC(C)C)cs2)cc1C` [Example 63, N′-[2,5-Dimethyl-4-({4-[(propan-2-yloxy)methyl]-1,3-thiazol-2-yl}methyl)phenyl]-N-ethyl-N-methylimidoformamide dihydrochloride], the MIC under setting [1] is 0.0156 µg/mL. For `CCN(C)/C=N/c1cc(C)c(Cc2nc(C3CCOCC3)cs2)cc1C` [Example 81, N′-(2,5-Dimethyl-4-{[4-(tetrahydro-2H-pyran-4-yl)-1,3-thiazol-2-yl]methyl}phenyl)-N-ethyl-N-methylimidoformamide], under setting [2], the MIC was found to be 0.0156 µg/mL (≈ 0.042 µM). Turning to `CCN(C)/C=N/c1cc(C)c(Cc2nc(-c3ccc(C)cc3)cs2)nc1C` [Example 47, N′-(2,5-Dimethyl-6-{[4-(4-methylphenyl)-1,3-thiazol-2-yl]methyl}pyridin-3-yl)-N-ethyl-N-methylimidoformamide dihydrochloride], the MIC under setting [1] was found to be 0.0313 µg/mL. For the compound `CCN(C)/C=N/c1cc(C)c(Cc2nc(-c3ccccc3)c(C(=O)c3ccccc3)s2)cc1C` [Example 25, N′-(2,5-Dimethyl-4-{[4-phenyl-5-(phenylcarbonyl)-1,3-thiazol-2-yl]methyl}phenyl)-N-ethyl-N-methylimidoformamide dihydrochloride], the MIC under setting [1] worked out at 0.0313 µg/mL.

On to `CN/C=N/c1cc(C)c(Cc2nc(-c3ccc(C(=O)NC)cc3)cs2)cc1C` [Example 95, 4-[2-(2,5-Dimethyl-4-{[(E)-(methylamino)methylidene]amino}benzyl)-1,3-thiazol-4-yl]-N-methylbenzamide], for which the MIC under setting [2] is 0.125 µg/mL (≈ 0.318 µM). With `CCOC(=O)Nc1csc(Cc2cc(C)c(/N=C/N(C)CC)cc2C)n1` [Example 31, Ethyl {2-[4-({(E)-[ethyl(methyl)amino]methylidene}amino)-2,5-dimethylbenzyl]-1,3-thiazol-4-yl}carbamate dihydrochloride], the MIC under setting [1] was found to be 0.0078 µg/mL. On the same count and under the same terms, the value for `CCN(C)/C=N/c1cc(C)c(Cc2nc(-c3ccn(C)c(=O)c3)cs2)cc1C` [Example 67, N′-(2,5-Dimethyl-4-{[4-(1-methyl-2-oxo-1,2-dihydropyridin-4-yl)-1,3-thiazol-2-yl]methyl}phenyl)-N-ethyl-N-methylimidoformamide dihydrochloride] was 0.0625 µg/mL; that for `CCN(C)/C=N/c1cc(C)c(Cc2nc(COC(C)=O)cs2)cc1C` [Example 34, {2-[4-({(E)-[Ethyl(methyl)amino]methylidene}amino)-2,5-dimethylbenzyl]-1,3-thiazol-4-yl}methyl acetate dihydrochloride] was 0.0313 µg/mL. With `COC(=O)CN(C)/C=N/c1cc(C)c(Cc2nc(-c3ccc(C)cc3)cs2)cc1C` [Example 7, Methyl N-{(E)-[(2,5-dimethyl-4-{[4-(4-methylphenyl)-1,3-thiazol-2-yl]methyl}phenyl)imino]methyl}-N-methylglycinate], under setting [2], the MIC came out at 0.25 µg/mL (≈ 0.593 µM).
